Key:
M14 = assay: NCI in vitro screen, SRB percent growth, Melanoma
CCRF-CEM = assay: NCI in vitro screen, SRB percent growth, Leukemia
SK-MEL-28 = assay: NCI in vitro screen, SRB percent growth, Melanoma
HOP-62 = assay: NCI in vitro screen, SRB percent growth, Non-Small Cell Lung Cancer
UACC-62 = assay: NCI in vitro screen, SRB percent growth, Melanoma
XF 498 = assay: NCI in vitro screen, SRB percent growth, CNS Cancer
SNB-75 = assay: as above
LOX IMVI = assay: NCI in vitro screen, SRB percent growth, Melanoma
RXF-631 = assay: NCI in vitro screen, SRB percent growth, Renal Cancer
KM12 = assay: NCI in vitro screen, SRB percent growth, Colon Cancer
OVCAR-3 = assay: NCI in vitro screen, SRB percent growth, Ovarian Cancer
Human tumor cell lines = assay: NCI in vitro screen, overall result; conditions: Tables I and II
MOLT-4 = assay: cells; conditions: Homo sapiens
786-0 = assay: cells; conditions: Homo sapiens
KM20L2 = assay: cells; conditions: Homo sapiens
SF-539 = assay: NCI in vitro screen, SRB percent growth, CNS Cancer
UACC-257 = assay: NCI in vitro screen, SRB percent growth, Melanoma
[1] = Log10 Concentration -4.0, 100 µM
[2] = Log10 Concentration -7.0, 0.1 µM
[3] = MOLT-4, read-out: Percent Growth
[4] = 786-0, read-out: Percent Growth
[5] = KM-20L2, read-out: Percent Growth

SMILES: Cc1ccc2[nH]c3c(C)c4c(c(C)c3c2c1)CN(C)C=C4 [Formula XI]
- Percent Growth (M14; [1]): -93%
- Percent Growth (M14; Log10 Concentration -5.0): 6%
- Percent Growth (M14; Log10 Concentration -6.0, 1 µM): 103%
- Percent Growth (M14; [2]): 94%
- Percent Growth (M14; Log10 Concentration -8.0): 106%
- TGI (M14; PG=0): 11.4 µM
- GI50 (M14; PG=+50): 3.52 µM
- CC50 (M14; read-out: LC-50, PG=-50): 36.8 µM
- Percent Growth (CCRF-CEM; [1]): -35%
- Percent Growth (CCRF-CEM; Log10 Concentration -5.0): 13%
- Percent Growth (CCRF-CEM; Log10 Concentration -6.0, 1 µM): 74%
- Percent Growth (CCRF-CEM; [2]): 94%
- Percent Growth (CCRF-CEM; Log10 Concentration -8.0): 102%
- TGI (CCRF-CEM; PG=0): 18 µM
- GI50 (CCRF-CEM; PG=+50): 2.48 µM
- CC50 (CCRF-CEM; read-out: LC-50, PG=-50): > 100 µM
- Percent Growth (SK-MEL-28; [1]): -95%
- Percent Growth (SK-MEL-28; Log10 Concentration -5.0): -61%
- Percent Growth (SK-MEL-28; Log10 Concentration -6.0, 1 µM): 108%
- Percent Growth (SK-MEL-28; [2]): 115%
- Percent Growth (SK-MEL-28; Log10 Concentration -8.0): 114%
- TGI (SK-MEL-28; PG=0): 4.37 µM
- GI50 (SK-MEL-28; PG=+50): 2.21 µM
- CC50 (SK-MEL-28; read-out: LC-50, PG=-50): 8.62 µM
- Percent Growth (HOP-62; [1]): -89%
- Percent Growth (HOP-62; Log10 Concentration -5.0): -39%
- Percent Growth (HOP-62; Log10 Concentration -6.0, 1 µM): 11%
- Percent Growth (HOP-62; [2]): 119%
- Percent Growth (HOP-62; Log10 Concentration -8.0): 121%
- TGI (HOP-62; PG=0): 1.64 µM
- GI50 (HOP-62; PG=+50): 0.433 µM
- CC50 (HOP-62; read-out: LC-50, PG=-50): 16.3 µM
- Percent Growth (UACC-62; [1]): -84%
- Percent Growth (UACC-62; Log10 Concentration -5.0): -91%
- Percent Growth (UACC-62; Log10 Concentration -6.0, 1 µM): 92%
- Percent Growth (UACC-62; [2]): 100%
- Percent Growth (UACC-62; Log10 Concentration -8.0): 106%
- TGI (UACC-62; PG=0): 3.18 µM
- GI50 (UACC-62; PG=+50): 1.69 µM
- CC50 (UACC-62; read-out: LC-50, PG=-50): 5.99 µM
- Percent Growth (XF 498; [1]): -57%
- Percent Growth (XF 498; Log10 Concentration -5.0): -33%
- Percent Growth (XF 498; Log10 Concentration -6.0, 1 µM): 46%
- Percent Growth (XF 498; [2]): 98%
- Percent Growth (XF 498; Log10 Concentration -8.0): 101%
- TGI (XF 498; PG=0): 3.84 µM
- GI50 (XF 498; PG=+50): 0.851 µM
- CC50 (XF 498; read-out: LC-50, PG=-50): 50.4 µM
- Percent Growth (SNB-75; [1]): -97%
- Percent Growth (SNB-75; Log10 Concentration -5.0): -72%
- Percent Growth (SNB-75; Log10 Concentration -6.0, 1 µM): 20%
- Percent Growth (SNB-75; [2]): 109%
- Percent Growth (SNB-75; Log10 Concentration -8.0): 110%
- TGI (SNB-75; PG=0): 1.66 µM
- GI50 (SNB-75; PG=+50): 0.462 µM
- CC50 (SNB-75; read-out: LC-50, PG=-50): 5.75 µM
- Percent Growth (LOX IMVI; [1]): -81%
- Percent Growth (LOX IMVI; Log10 Concentration -5.0): 26%
- Percent Growth (LOX IMVI; Log10 Concentration -6.0, 1 µM): 82%
- Percent Growth (LOX IMVI; [2]): 94%
- Percent Growth (LOX IMVI; Log10 Concentration -8.0): 98%
- TGI (LOX IMVI; PG=0): 17.4 µM
- GI50 (LOX IMVI; PG=+50): 3.67 µM
- CC50 (LOX IMVI; read-out: LC-50, PG=-50): 51.4 µM
- Percent Growth (RXF-631; [1]): -78%
- Percent Growth (RXF-631; Log10 Concentration -5.0): -8%
- Percent Growth (RXF-631; Log10 Concentration -6.0, 1 µM): 30%
- Percent Growth (RXF-631; [2]): 74%
- Percent Growth (RXF-631; Log10 Concentration -8.0): 95%
- TGI (RXF-631; PG=0): 6.25 µM
- GI50 (RXF-631; PG=+50): 0.352 µM
- CC50 (RXF-631; read-out: LC-50, PG=-50): 39.5 µM
- Percent Growth (KM12; [1]): -93%
- Percent Growth (KM12; Log10 Concentration -5.0): -48%
- Percent Growth (KM12; Log10 Concentration -6.0, 1 µM): 38%
- Percent Growth (KM12; [2]): 95%
- Percent Growth (KM12; Log10 Concentration -8.0): 97%
- TGI (KM12; PG=0): 2.78 µM
- GI50 (KM12; PG=+50): 0.622 µM
- CC50 (KM12; read-out: LC-50, PG=-50): 11 µM
- Percent Growth (OVCAR-3; [1]): -91%
- Percent Growth (OVCAR-3; Log10 Concentration -5.0): 5%
- Percent Growth (OVCAR-3; Log10 Concentration -6.0, 1 µM): 76%
- Percent Growth (OVCAR-3; [2]): 94%
- Percent Growth (OVCAR-3; Log10 Concentration -8.0): 98%
- TGI (OVCAR-3; PG=0): 11.3 µM
- GI50 (OVCAR-3; PG=+50): 2.34 µM
- CC50 (OVCAR-3; read-out: LC-50, PG=-50): 37.6 µM
- effect against many kinds of cancer (Human tumor cell lines): effective against many kinds of cancer
- GI50 (MOLT-4; MOLT-4): 2.14 µM
- CC50 (MOLT-4; MOLT-4, read-out: LC-50): > 100 µM
- activity at 0.01 µM (MOLT-4; [3]): 104%
- activity at 0.1 µM (MOLT-4; [3]): 101%
- activity at 1 µM (MOLT-4; [3]): 68%
- activity at 10 µM (MOLT-4; [3]): 14%
- activity at 100 µM (MOLT-4; [3]): -50%
- IC (TGI) (MOLT-4; MOLT-4, read-out: TGI): 16.5 µM
- GI50 (786-0; 786-0): 0.523 µM
- CC50 (786-0; 786-0, read-out: LC-50): 37.3 µM
- activity at 0.01 µM (786-0; [4]): 102%
- activity at 0.1 µM (786-0; [4]): 96%
- activity at 1 µM (786-0; [4]): 32%
- activity at 10 µM (786-0; [4]): 3%
- activity at 100 µM (786-0; [4]): -90%
- IC (TGI) (786-0; 786-0, read-out: TGI): 10.7 µM
- GI50 (KM20L2; KM-20L2): 2.22 µM
- CC50 (KM20L2; KM-20L2, read-out: LC-50): 38 µM
- activity at 0.01 µM (KM20L2; [5]): 106%
- activity at 0.1 µM (KM20L2; [5]): 95%
- activity at 1 µM (KM20L2; [5]): 73%
- activity at 10 µM (KM20L2; [5]): 7%
- activity at 100 µM (KM20L2; [5]): -91%
- IC (TGI) (KM20L2; KM-20L2, read-out: TGI): 11.7 µM
- Percent Growth (SF-539; [1]): -90%
- Percent Growth (SF-539; Log10 Concentration -5.0): -58%
- Percent Growth (SF-539; Log10 Concentration -6.0, 1 µM): 6%
- Percent Growth (SF-539; [2]): 92%
- Percent Growth (SF-539; Log10 Concentration -8.0): 99%
- TGI (SF-539; PG=0): 1.23 µM
- GI50 (SF-539; PG=+50): 0.305 µM
- CC50 (SF-539; read-out: LC-50, PG=-50): 7.56 µM
- Percent Growth (UACC-257; [1]): -87%
- Percent Growth (UACC-257; Log10 Concentration -5.0): -8%
- Percent Growth (UACC-257; Log10 Concentration -6.0, 1 µM): 86%
- Percent Growth (UACC-257; [2]): 90%
- Percent Growth (UACC-257; Log10 Concentration -8.0): 97%
- TGI (UACC-257; PG=0): 8.23 µM
- GI50 (UACC-257; PG=+50): 2.43 µM
- CC50 (UACC-257; read-out: LC-50, PG=-50): 34.3 µM
